Assay results from patent US20150080380A1, “Therapeutic Uses” (GLAXOSMITHKLINE INTELLECTUAL PROPERTY DEVELOPMENT LIMITED, priority 2012, published 2015).

Assays:
[1] = system: remyelination in cuprizone-induced demyelination; experiment: Mouse cuprizone-induced demyelination model (Black-gold II staining); assay type: in vivo, C57BL/6 mice; conditions: forebrain and hindbrain; for myelin staining intensity of corpus callosum (percentage of mean density of naïve control): vehicle 15.75%; for demyelination area, corpus callosum: vehicle 54.81%
Description: The ability of the compound of Example 1 to enhance in vivo remyelination was determined with the mouse cuprizone-induced demyelination model.
The cuprizone model was conducted with the protocol as follows: the C57BL/6 mice at age of 8 weeks were fed with powder mouse food mixed freshly with 0.2% cuprizone (w/w) for 5 weeks to induce demyelination, then animals were allowed to recover (removal of cuprizone from the diet) and administrated with Example compound 1, at 0.3 mg/kg, 1 mg/kg, 3 mg/kg and 10 mg/kg body weight orally, b.i.d. for an additional 9 days prior to sacrifice. The brain samples were collected for assessment of myelination. The compound of Example 1 was formulated as a suspension using 1% aqueous methylcellulose as the vehicle.
Mice were deeply anesthetized and quickly perfused with 0.9% saline via the left cardiac ventricle to drain out blood. Whole brains were taken out and put into 15 ml tube with 4% paraformaldehyde (PFA) for post-fixation overnight, then soaked in 30% sucrose for 24-48 h to dehydrate. For frozen embedding, brains were immediately snap frozen in isopentane mixed with dry ice and then embedded in optimal cutting temperature solution (OCT). Whole brains were sectioned at coronal position from Bregma −2.46 mm to 1.18 mm according to mouse atlas by Paxinos and Franklin (The Mouse Brain in Stereotaxic Coordinates—3rd Edition) with cryostat (MICROM HM525) at a thickness of 30 μm. All sections were put into 96-well plate filled with anti-freezing solution [300 g sucrose dissolved in 500 ml 0.1 M PB solution (combine 11.505 g Na2HPO4 and 2.275 g NaH2PO4, dilute to 1 L with distilled water, adjust pH to 7.4) plus 300 ml Ethylene glycol and dilute to 1 L with distilled water]. For Black-gold II staining, 2 sections from forebrain around the bregma 0.86 mm and 2 sections from hindbrain around the bregma −1.58 mm for each mouse respectively were chosen according to mouse atlas by Paxinos and Franklin. Black-gold II staining for detection of myelination was performed according to a protocol adapted from the manufacturer (AG105, Millipore). Briefly, 2 free-floating sections from forebrain and 2 sections from hindbrain were rehydrated 2× in MilliQ water for 2 minutes each time and then stained in a 24-well plate with 0.3% Black-gold II solution at 60° C. for 20 minutes. The sections were monitored to determine the extent of staining. When the finest myelinated fibers were stained dark red to black, the staining process was stopped. The sections were then rinsed 2× in MilliQ water for 2 minutes each time. Then the sections were treated with Sodium thiosulfate solution (1%) for 6 minutes at 60° C. After rinsing in PBST (0.05% Triton X100 in PBS), sections were mounted on slides (Leica Microsystems Plus Slides) and further air-dried on 37° C. heating platform for 2-4 hours. The dehydrated slides were coverslipped with robotic coverslipper (CV5030, Leica). Stained slides were scanned by Scanscope (Aperio Technologies Inc.). Digital images of central corpus callosum or cortex close to cingulum were captured using ImageScope (Aperio Technologies Inc.) at the magnification of 20×.
Image-Pro 6.3 software (Media Cybernetics, Bethesda, Md. 20814 USA) was used for subsequent quantitative evaluation. Threshold was set to Black-gold II staining in each gated corpus callosum and held constant for images obtained at equal objectives and light intensities on slides that were processed. Two parameters were used here: area and IOD (Integrated Optical Density). For measurement of demyelination area, all digital images were set under the same colour range after converted to a greyscale value of 8. Demyelination area indicated by void of Black-gold staining and total area of central corpus callosum at 20× magnification were measured separately on each image. Mean demyelination area was calculated as: (demyelination area/total area of central corpus callosum)×100. […]

[2] = biological target: T1, human recombinant H3 receptor (Homo sapiens, UniProt Q9Y5N1); experiment: GTPγS binding assay (basal binding, HEK-293-GαO membranes); assay type: biochemical; conditions: 100 nM-0.001 nM, absence of H3R agonist, 3 independent experiments; read-out: pEC50, inhibition of basal GTPγS binding (converted)
T1 construct: host or cells: HEK-293-GαO cells transduced with BacMam virus; membranes prepared
T1 sequence (Q9Y5N1 whole entry): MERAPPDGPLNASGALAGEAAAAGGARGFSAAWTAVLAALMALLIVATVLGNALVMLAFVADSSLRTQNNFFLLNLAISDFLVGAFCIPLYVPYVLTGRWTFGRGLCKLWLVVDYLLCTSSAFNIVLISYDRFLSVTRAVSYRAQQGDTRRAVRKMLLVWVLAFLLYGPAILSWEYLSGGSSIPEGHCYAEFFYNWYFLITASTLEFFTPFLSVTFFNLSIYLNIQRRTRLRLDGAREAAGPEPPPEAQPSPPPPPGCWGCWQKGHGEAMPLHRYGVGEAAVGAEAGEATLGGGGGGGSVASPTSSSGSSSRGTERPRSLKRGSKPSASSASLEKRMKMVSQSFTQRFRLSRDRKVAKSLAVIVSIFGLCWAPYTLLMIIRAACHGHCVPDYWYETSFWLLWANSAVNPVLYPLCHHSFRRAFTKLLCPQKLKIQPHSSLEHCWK
Description: The effect of Example compound 1 on basal GTPγS binding to the H3R receptor was determined in the GTPγS binding assay.
Human embryonic kidney 293 cells stably expressing G protein GαO (HEK-293-GO) were maintained in minimum essential medium (MEM) supplemented with Earle's salts, 2 mM L-glutamine, […] geneticin and 10% foetal bovine serum at 37-8° C., 5% CO2 in a humidified environment. Exponentially growing cells were infected with BacMam virus encoding the human recombinant H3 receptor (Biocat: Virus 96801) as follows. Cells were detached from flasks in PBS and collected by centrifugation at 200×g for 5 min at room temperature. […]
Cell membranes were diluted to ˜1 mg/ml in assay buffer (20 mM HEPES, 100 mM NaCl, 10 mM MgCl2, pH 7.4) and incubated with wheat germ agglutinin scintillation proximity assay (SPA) beads (Amersham Biosciences) for 45 min, after which GDP ([…]) was added. […] Non-specific binding was determined by the inclusion of 0.6 mM GTPγS. […] Filters were washed twice with 4 ml ice-cold water and bound […] on the filters was measured by scintillation counting on a Wallac 1450 Microbeta Trilux counter.
The data was analyzed and presented as fold change of the number of the vehicle control well (DMSO). […]

O=C1CCCN1c1ccc(Oc2ccc3c(c2)CCN(C2CCC2)CC3)nc1 [Example compound 1, 1-{6-[(3-cyclobutyl-2,3,4,5-tetrahydro-1H-3-benzazepin-7-yl)oxy]-3-pyridinyl}-2-pyrrolidinone] was tested, and the “myelin staining intensity of corpus callosum (percentage of mean density of naïve control)” value ([1]; 0.3 mg/kg orally b.i.d. 9 days) was 18.61%±1.01%, the “demyelination area, corpus callosum” value ([1]; 0.3 mg/kg orally b.i.d. 9 days) was 46.82%±3.54% and the “myelin staining intensity of corpus callosum (percentage of mean density of naïve control)” value ([1]; 1 mg/kg orally b.i.d. 9 days) was 22.00%±3.41%. The “demyelination area, corpus callosum” value ([1]; 1 mg/kg orally b.i.d. 9 days) was 38.45%±7.55%, the “myelin staining intensity of corpus callosum (percentage of mean density of naïve control)” value ([1]; 3 mg/kg orally b.i.d. 9 days) was 28.32%±7.76% and the “demyelination area, corpus callosum” value ([1]; 3 mg/kg orally b.i.d. 9 days) was 41.22%±11.14%. For the same compound, the “myelin staining intensity of corpus callosum (percentage of mean density of naïve control)” value ([1]; 10 mg/kg orally b.i.d. 9 days, P<0.05) was 26.36%±3.10%, the “demyelination area, corpus callosum” value ([1]; 10 mg/kg orally b.i.d. 9 days, P<0.01) was 27.62%±5.20% and the EC50 [2] was 0.112 nM.
